According to the supplement of paper PMC10627819:

Columns and labels:
B. subtilis 168 [1] = assay: fitness (endpoint OD595 vs no drug) (fraction); higher = more growth
Procedure, shortened: (§1)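 At 37 °C, bacteria in TSB, LB Lennox or CY were grown in 384-well plates from a starting OD595 of 0.01. OD595 was measured every 30 min for 14 h, with the first reading used as background. Fitness is the optical density at the switch to stationary phase as a fraction of the robust mean of no-drug control wells, capped at 1.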

S. aureus DSM 20231 [2] = assay: as above
Procedure, shortened: as §1

S. pneumoniae D39V [3] = assay: as above
Procedure, shortened: as §1

B. subtilis 168 [4] = assay: Bliss interaction score (quartile over a dose matrix) (fitness difference); higher = more antagonism (negative = synergy)
Procedure, shortened: (§2)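 Fitness was OD595 at entry into stationary phase divided by the plate's robust no-drug mean and capped at 1; single-drug fitness was inferred from combination data. The Bliss score is observed minus expected (product) fitness, summarised by quartiles over technical, biological and donor/recipient replicates.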

S. aureus DSM 20231 [5] = assay: as above
Procedure, shortened: as §2

S. aureus Newman = assay: as above
Procedure, shortened: as §2

S. pneumoniae D39V [6] = assay: as above
Procedure, shortened: as §2
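For Bliss interaction score (quartile over a dose matrix) in this document: first quartile when negative (synergy) and third quartile when positive (antagonism).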

CO/N=C(\C(=O)N[C@@H]1C(=O)N2C(C(=O)O)=C(COC(C)=O)CS[C@H]12)c1csc(N)n1 [Cefotaxime] + CCC[C@@H]1C[C@@H](C(=O)N[C@@H]([C@H]2O[C@H](SC)[C@H](O)[C@@H](O)[C@H]2O)[C@@H](C)O)N(C)C1 [Lincomycin]
fitness, B. subtilis 168 [1], one replicate
Conditions | first compound 0.00775 µg/mL | first compound 0.0155 µg/mL | first compound 0.031 µg/mL | first compound 0.0625 µg/mL | first compound 0.125 µg/mL | first compound 0.25 µg/mL
partner 0.1 µg/mL | – | – | – | 0.506 | 0.44 | 0.334
partner 0.2 µg/mL | – | – | – | 0.548 | 0.452 | 0.371
partner 0.4 µg/mL | 0.767 | 0.667 | 0.452 | 0.475 | 0.444 | 0.319
partner 0.8 µg/mL | 0.744 | 0.619 | 0.415 | – | – | –
partner 1.6 µg/mL | 0.683 | 0.575 | 0.388 | – | – | –

fitness
Conditions | partner 0.1 µg/mL | partner 0.2 µg/mL | partner 0.215 µg/mL | partner 0.4 µg/mL | partner 0.43 µg/mL | partner 0.8 µg/mL | partner 0.86 µg/mL
B. subtilis 168 [1], first compound 0.5 µg/mL | 0.257 | 0.241 | – | 0.201 | – | – | –
B. subtilis 168 [1], first compound 1 µg/mL | 0.144 | 0.126 | – | 0.0991 | – | – | –
B. subtilis 168 [1], first compound 2 µg/mL | 0.0702 | 0.0617 | – | 0.0675 | – | – | –
S. aureus DSM 20231 [2], first compound 0.039 µg/mL | 0.748 | 0.799 | – | – | – | – | –
S. aureus DSM 20231 [2], first compound 0.078 µg/mL | 0.721 | 0.728 | – | – | – | – | –
S. aureus DSM 20231 [2], first compound 0.156 µg/mL | 0.628 | 0.659 | – | 0.353 | – | – | –
S. aureus DSM 20231 [2], first compound 0.312 µg/mL | 0.582 | 0.569 | – | 0.188 | – | – | –
S. pneumoniae D39V [3], first compound 0.0018 µg/mL | – | 0.667 | 0.903 | 0.469 | 0.759 | 0.185 | 0.56
S. pneumoniae D39V [3], first compound 0.0035 µg/mL | – | 0.626 | 0.866 | 0.455 | 0.748 | 0.142 | 0.489
S. pneumoniae D39V [3], first compound 0.007 µg/mL | – | 0.566 | 0.868 | 0.388 | 0.791 | 0.0851 | 0.469

Conditions | Bliss interaction score
B. subtilis 168 [4] | 0.0413
S. aureus DSM 20231 [5] | 0.0625
S. aureus Newman | -0.173
S. pneumoniae D39V [6] | 0.105

COc1cccc2c1C(=O)c1c(O)c3c(c(O)c1C2=O)C[C@@](O)(C(=O)CO)C[C@@H]3O[C@H]1C[C@H](N)[C@H](O)[C@H](C)O1 [Doxorubicin] + COc1cc(Cc2cnc(N)nc2N)cc(OC)c1OC [Trimethoprim]
fitness, B. subtilis 168 [1], one replicate
Conditions | partner 0.1 µg/mL | partner 0.2 µg/mL | partner 0.4 µg/mL | partner 1 µg/mL | partner 2 µg/mL
first compound 0.625 µg/mL | 0.868 | 0.699 | 0.524 | 0.278 | 0.222
first compound 1.25 µg/mL | 0.849 | 0.646 | 0.504 | 0.228 | 0.152
first compound 2.5 µg/mL | 0.799 | 0.559 | 0.391 | 0.126 | 0.0762

fitness
Conditions | partner 0.125 µg/mL | partner 0.25 µg/mL | partner 0.5 µg/mL | partner 1 µg/mL
B. subtilis 168 [1], first compound 0.625 µg/mL | 0.628 | 0.489 | 0.435 | –
B. subtilis 168 [1], first compound 1.25 µg/mL | 0.582 | – | 0.421 | –
B. subtilis 168 [1], first compound 2.5 µg/mL | 0.469 | 0.393 | 0.37 | –
S. aureus DSM 20231 [2], first compound 0.625 µg/mL | 0.683 | 0.557 | 0.175 | 0.0314
S. aureus DSM 20231 [2], first compound 1.25 µg/mL | 0.742 | 0.56 | 0.0868 | 0.0177
S. aureus DSM 20231 [2], first compound 2.5 µg/mL | 0.728 | 0.523 | 0.0302 | 0.0244

Conditions | Bliss interaction score
B. subtilis 168 [4] | -0.0392
S. aureus DSM 20231 [5] | -0.0539
S. aureus Newman | 0.0879
S. pneumoniae D39V [6] | -0.179

CO/N=C(\C(=O)N[C@@H]1C(=O)N2C(C(=O)O)=C(COC(C)=O)CS[C@H]12)c1csc(N)n1 [Cefotaxime] + COc1cc(Cc2cnc(N)nc2N)cc(OC)c1OC [Trimethoprim]
one replicate
Conditions | fitness
B. subtilis 168 [1], first compound 0.00775 µg/mL, partner 0.125 µg/mL | 0.309
B. subtilis 168 [1], first compound 0.00775 µg/mL, partner 0.25 µg/mL | 0.288
B. subtilis 168 [1], first compound 0.00775 µg/mL, partner 0.5 µg/mL | 0.269
B. subtilis 168 [1], first compound 0.0155 µg/mL, partner 0.125 µg/mL | 0.262
B. subtilis 168 [1], first compound 0.0155 µg/mL, partner 0.25 µg/mL | 0.181
B. subtilis 168 [1], first compound 0.0155 µg/mL, partner 0.5 µg/mL | 0.0769
B. subtilis 168 [1], first compound 0.031 µg/mL, partner 0.125 µg/mL | 0.149
B. subtilis 168 [1], first compound 0.031 µg/mL, partner 0.25 µg/mL | 0.0914
B. subtilis 168 [1], first compound 0.031 µg/mL, partner 0.5 µg/mL | 0.0904
B. subtilis 168 [1], first compound 0.0625 µg/mL, partner 0.1 µg/mL | 0.47
B. subtilis 168 [1], first compound 0.0625 µg/mL, partner 0.125 µg/mL | 0.432
B. subtilis 168 [1], first compound 0.0625 µg/mL, partner 0.2 µg/mL | 0.454
B. subtilis 168 [1], first compound 0.0625 µg/mL, partner 0.4 µg/mL | 0.402
B. subtilis 168 [1], first compound 0.125 µg/mL, partner 0.1 µg/mL | 0.364
B. subtilis 168 [1], first compound 0.125 µg/mL, partner 0.125 µg/mL | 0.345
B. subtilis 168 [1], first compound 0.125 µg/mL, partner 0.2 µg/mL | 0.336
B. subtilis 168 [1], first compound 0.125 µg/mL, partner 0.4 µg/mL | 0.296
B. subtilis 168 [1], first compound 0.25 µg/mL, partner 0.1 µg/mL | 0.109
B. subtilis 168 [1], first compound 0.25 µg/mL, partner 0.125 µg/mL | 0.274
B. subtilis 168 [1], first compound 0.25 µg/mL, partner 0.2 µg/mL | 0.223
B. subtilis 168 [1], first compound 0.25 µg/mL, partner 0.4 µg/mL | 0.127
B. subtilis 168 [1], first compound 0.5 µg/mL, partner 1 µg/mL | 0.104
B. subtilis 168 [1], first compound 0.5 µg/mL, partner 2 µg/mL | 0.129
B. subtilis 168 [1], first compound 1 µg/mL, partner 1 µg/mL | 0.0524
B. subtilis 168 [1], first compound 1 µg/mL, partner 2 µg/mL | 0.0575
B. subtilis 168 [1], first compound 2 µg/mL, partner 1 µg/mL | 0.0669
B. subtilis 168 [1], first compound 2 µg/mL, partner 2 µg/mL | 0.0449
S. aureus DSM 20231 [2], first compound 0.039 µg/mL, partner 0.125 µg/mL | 0.663
S. aureus DSM 20231 [2], first compound 0.312 µg/mL, partner 0.125 µg/mL | 0.498
S. aureus DSM 20231 [2], first compound 0.312 µg/mL, partner 0.25 µg/mL | 0.384
S. aureus DSM 20231 [2], first compound 0.312 µg/mL, partner 0.5 µg/mL | 0.0438

fitness
Conditions | partner 0.125 µg/mL | partner 0.25 µg/mL | partner 0.5 µg/mL | partner 1 µg/mL
B. subtilis 168 [1], first compound 0.0625 µg/mL | – | 0.386 | 0.363 | –
B. subtilis 168 [1], first compound 0.125 µg/mL | – | 0.285 | 0.27 | –
B. subtilis 168 [1], first compound 0.25 µg/mL | – | 0.217 | 0.19 | –
B. subtilis 168 [1], first compound 0.5 µg/mL | – | – | 0.125 | –
B. subtilis 168 [1], first compound 1 µg/mL | – | – | 0.108 | –
B. subtilis 168 [1], first compound 2 µg/mL | – | – | 0.0672 | –
S. aureus DSM 20231 [2], first compound 0.039 µg/mL | – | 0.558 | 0.14 | 0.047
S. aureus DSM 20231 [2], first compound 0.078 µg/mL | 0.584 | 0.536 | 0.207 | 0.0436
S. aureus DSM 20231 [2], first compound 0.156 µg/mL | 0.605 | 0.57 | 0.299 | 0.0551

Conditions | Bliss interaction score
B. subtilis 168 [4] | 0.0814
S. aureus DSM 20231 [5] | 0.0326
S. aureus Newman | -0.0597
S. pneumoniae D39V [6] | 0.224

COc1cccc2c1C(=O)c1c(O)c3c(c(O)c1C2=O)C[C@@](O)(C(=O)CO)C[C@@H]3O[C@H]1C[C@H](N)[C@H](O)[C@H](C)O1 [Doxorubicin] + CC(=O)NC[C@H]1CN(c2ccc(N3CCOCC3)c(F)c2)C(=O)O1 [Linezolid]
fitness, one replicate
Conditions | first compound 0.625 µg/mL | first compound 1.25 µg/mL | first compound 2.5 µg/mL
B. subtilis 168 [1], partner 0.0625 µg/mL | 0.956 | 0.901 | 0.574
S. aureus DSM 20231 [2], partner 1 µg/mL | 0.0276 | 0.0358 | 0.0376

fitness
Conditions | first compound 0.25 µg/mL | first compound 0.5 µg/mL | first compound 0.625 µg/mL | first compound 1 µg/mL | first compound 1.25 µg/mL | first compound 2.5 µg/mL
B. subtilis 168 [1], partner 0.125 µg/mL | – | – | 0.556 | – | 0.489 | 0.311
B. subtilis 168 [1], partner 0.25 µg/mL | – | – | 0.0946 | – | 0.078 | 0.0654
B. subtilis 168 [1], partner 0.5 µg/mL | – | – | 0.0377 | – | 0.0497 | 0.0425
S. aureus DSM 20231 [2], partner 0.125 µg/mL | – | – | 0.762 | – | 0.814 | 0.716
S. aureus DSM 20231 [2], partner 0.25 µg/mL | – | – | 0.617 | – | 0.603 | 0.514
S. aureus DSM 20231 [2], partner 0.5 µg/mL | – | – | 0.223 | – | 0.204 | 0.16
S. pneumoniae D39V [3], partner 0.105 µg/mL | 0.755 | 0.756 | – | 0.746 | – | –
S. pneumoniae D39V [3], partner 0.2 µg/mL | 0.49 | 0.487 | – | 0.412 | – | –
S. pneumoniae D39V [3], partner 0.21 µg/mL | 0.633 | 0.66 | – | 0.674 | – | –
S. pneumoniae D39V [3], partner 0.4 µg/mL | 0.351 | 0.331 | – | 0.302 | – | –
S. pneumoniae D39V [3], partner 0.42 µg/mL | 0.472 | 0.432 | – | 0.377 | – | –
S. pneumoniae D39V [3], partner 0.8 µg/mL | 0.155 | 0.153 | – | 0.141 | – | –

Conditions | Bliss interaction score
B. subtilis 168 [4] | -0.0705
S. aureus DSM 20231 [5] | -0.0425
S. aureus Newman | 0.0954
S. pneumoniae D39V [6] | -0.113
